pIC50: −log10 of the molar value. The source made the active and inactive calls. No cut-off for these calls is given here.
Columns and labels:
Lemna minor [1] = experiment: Herbicidal activity against Lemna minor (common duckweed) assessed as decrease in chlorophyll fluorescence at 56 mg/l measured for 4 days by picture analysis relative to control; type: functional, organism-based
Lemna minor [2] = experiment: Herbicidal activity against Lemna minor (common duckweed) assessed as growth inhibition at 56 mg/l measured for 6 days by picture analysis relative to control; type: functional, organism-based
[3] = biological target: T1, 1-deoxy-D-xylulose-5-phosphate synthase, chloroplastic (Arabidopsis thaliana, UniProt Q38854); experiment: Inhibition of Arabidopsis thaliana N-terminal GST-tagged DXS expressed in Escherichia coli BL21 GOLD (DE) using glyceraldehydephosphate and pyruvate as substrate after 90 min by spectrophotometric analysis
T1 sequence (Q38854 whole entry): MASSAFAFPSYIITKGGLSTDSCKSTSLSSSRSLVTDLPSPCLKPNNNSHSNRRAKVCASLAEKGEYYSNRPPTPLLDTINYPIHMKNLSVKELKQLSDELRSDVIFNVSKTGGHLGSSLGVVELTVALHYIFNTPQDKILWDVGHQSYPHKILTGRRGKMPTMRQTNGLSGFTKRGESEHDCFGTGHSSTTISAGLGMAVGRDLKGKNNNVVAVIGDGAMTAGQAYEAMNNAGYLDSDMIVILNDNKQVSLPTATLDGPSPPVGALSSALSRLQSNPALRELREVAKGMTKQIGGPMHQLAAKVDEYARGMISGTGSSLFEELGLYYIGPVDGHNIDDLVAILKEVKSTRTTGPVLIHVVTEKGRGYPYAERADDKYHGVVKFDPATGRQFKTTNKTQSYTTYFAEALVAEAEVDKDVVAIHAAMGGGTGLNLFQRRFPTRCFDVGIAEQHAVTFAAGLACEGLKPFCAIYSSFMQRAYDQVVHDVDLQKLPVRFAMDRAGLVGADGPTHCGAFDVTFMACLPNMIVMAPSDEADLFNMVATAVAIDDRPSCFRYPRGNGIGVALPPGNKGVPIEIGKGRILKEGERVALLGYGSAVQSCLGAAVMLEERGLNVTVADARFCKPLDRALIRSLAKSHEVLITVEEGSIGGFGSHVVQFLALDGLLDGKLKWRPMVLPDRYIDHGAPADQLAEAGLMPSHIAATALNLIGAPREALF

[4] = biological target: T2, 2-C-methyl-D-erythritol 4-phosphate cytidylyltransferase, chloroplastic (Arabidopsis thaliana, UniProt P69834); experiment: Inhibition of Arabidopsis thaliana IspD
T2 sequence (P69834 whole entry): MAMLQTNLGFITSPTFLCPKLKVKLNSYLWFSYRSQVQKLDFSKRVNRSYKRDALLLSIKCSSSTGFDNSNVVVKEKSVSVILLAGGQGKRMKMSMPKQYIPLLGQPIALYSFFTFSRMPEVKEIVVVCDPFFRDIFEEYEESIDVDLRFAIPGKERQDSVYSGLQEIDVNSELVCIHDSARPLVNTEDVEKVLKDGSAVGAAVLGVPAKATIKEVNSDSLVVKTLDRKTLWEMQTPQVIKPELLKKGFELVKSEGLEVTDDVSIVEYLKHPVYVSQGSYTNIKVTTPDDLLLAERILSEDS

[5] = biological target: T3, 1-deoxy-D-xylulose 5-phosphate reductoisomerase, chloroplastic (Arabidopsis thaliana, UniProt Q9XFS9); experiment: Inhibition of Arabidopsis thaliana IspC expressed in Escherichia coli after 40 min by spectrophotometric analysis
T3 sequence (Q9XFS9 whole entry): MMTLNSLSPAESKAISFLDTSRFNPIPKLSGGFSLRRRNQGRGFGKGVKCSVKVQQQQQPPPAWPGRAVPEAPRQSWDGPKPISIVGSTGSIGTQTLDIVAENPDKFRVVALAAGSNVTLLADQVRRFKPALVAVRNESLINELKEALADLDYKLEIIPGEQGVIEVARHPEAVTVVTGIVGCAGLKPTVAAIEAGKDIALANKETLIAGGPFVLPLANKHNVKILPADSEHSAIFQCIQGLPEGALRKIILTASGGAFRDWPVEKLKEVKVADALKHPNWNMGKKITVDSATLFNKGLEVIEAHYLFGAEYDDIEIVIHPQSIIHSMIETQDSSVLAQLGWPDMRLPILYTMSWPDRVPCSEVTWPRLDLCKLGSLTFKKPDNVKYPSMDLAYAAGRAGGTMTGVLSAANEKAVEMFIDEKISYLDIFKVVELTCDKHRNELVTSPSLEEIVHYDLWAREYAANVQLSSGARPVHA

[6] = biological target: T4, 2-C-methyl-D-erythritol 2,4-cyclodiphosphate synthase, chloroplastic (Arabidopsis thaliana, UniProt Q9CAK8); experiment: Inhibition of Arabidopsis thaliana IspF expressed in Escherichia coli XL1-Blue after 30 min by spectrophotometric analysis
T4 sequence (Q9CAK8 whole entry): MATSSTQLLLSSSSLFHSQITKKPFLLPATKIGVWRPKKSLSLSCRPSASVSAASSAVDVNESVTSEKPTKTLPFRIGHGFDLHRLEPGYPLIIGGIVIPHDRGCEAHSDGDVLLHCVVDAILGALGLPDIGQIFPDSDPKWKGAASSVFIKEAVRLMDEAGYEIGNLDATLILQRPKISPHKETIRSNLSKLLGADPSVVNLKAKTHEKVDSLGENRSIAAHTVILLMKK

[7] = biological target: T5, 4-diphosphocytidyl-2-C-methyl-D-erythritol kinase, chloroplastic/chromoplastic (Solanum lycopersicum, UniProt P93841); experiment: Inhibition of Solanum lycopersicum (tomato) IspE
T5 sequence (P93841 whole entry): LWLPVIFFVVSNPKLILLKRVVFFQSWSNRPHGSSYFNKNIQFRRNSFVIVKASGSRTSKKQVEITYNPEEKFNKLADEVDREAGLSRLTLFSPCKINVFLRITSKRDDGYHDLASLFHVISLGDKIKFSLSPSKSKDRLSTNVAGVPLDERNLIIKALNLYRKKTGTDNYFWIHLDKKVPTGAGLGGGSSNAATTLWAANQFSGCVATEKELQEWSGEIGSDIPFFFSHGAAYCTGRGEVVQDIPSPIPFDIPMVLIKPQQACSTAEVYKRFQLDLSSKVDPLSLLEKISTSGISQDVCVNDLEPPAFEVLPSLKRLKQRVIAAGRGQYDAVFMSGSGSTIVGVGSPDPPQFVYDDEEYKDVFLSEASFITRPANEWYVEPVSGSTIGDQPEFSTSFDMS

[8] = biological target: T6, 4-diphosphocytidyl-2-C-methyl-D-erythritol kinase (Escherichia coli (strain K12), UniProt P62615); experiment: Inhibition of Escherichia coli IspE by spectrophotometric analysis
T6 sequence (P62615 whole entry): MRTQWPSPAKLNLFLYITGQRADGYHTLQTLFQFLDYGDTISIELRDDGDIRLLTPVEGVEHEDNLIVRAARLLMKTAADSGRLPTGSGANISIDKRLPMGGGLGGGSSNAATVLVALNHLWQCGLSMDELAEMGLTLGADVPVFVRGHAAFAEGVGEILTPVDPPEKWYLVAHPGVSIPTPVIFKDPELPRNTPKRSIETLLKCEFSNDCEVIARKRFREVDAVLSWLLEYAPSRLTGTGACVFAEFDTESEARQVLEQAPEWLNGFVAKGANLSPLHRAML

With `COc1ccc(-c2onc(C(F)(F)F)c2-c2ccc(Br)cc2)c(O)c1` the Activity (Lemna minor [1]) was “Active”, the “growth inhibition (GI)” value (Lemna minor [2]) was “Active” and the pIC50 [3] was 4.49.

For `COc1ccc2nc(NC(=O)c3cc(-c4ccccc4O)n[nH]3)sc2c1`, the pIC50 [4] was 5.74, the Activity (Lemna minor [1]) was “inactive” and the “growth inhibition (GI)” value (Lemna minor [2]) was “inactive”.

`COc1ccc(/C=N/Nc2nc3ccccc3[nH]2)cc1OCc1ccccc1` was tested, and the Activity (Lemna minor [1]) was “inactive”, the “growth inhibition (GI)” value (Lemna minor [2]) was “inactive” and the pIC50 [3] was 4.31.

Work on `CC1(C)C(=O)ON(Cc2ccccc2Cl)C1=O` [KETOCLOMAZONE] yielded a pIC50 [3] of 7.10.

In the case of `O=CN(O)CCCP(=O)(O)O` [FOSMIDOMYCIN], the pIC50 [5] was 7.00.

`CCOC(=O)C1=C(C)N=c2s/c(=C\c3cc(Br)c(O)c(Br)c3)c(=O)n2C1c1ccc(OC)cc1` (configuration not stated) was tested, and the pIC50 [6] was 5.49.

With `CCOc1ccc(-c2onc(C(F)(F)F)c2-c2ccc(OC)cc2)c(O)c1` the Activity (Lemna minor [1]) was “Active”, the “growth inhibition (GI)” value (Lemna minor [2]) was “Active” and the pIC50 [3] was 4.21.

`Oc1c(Cc2ccccc2)c(Cl)nc2ncnn12` was tested, and the Activity (Lemna minor [1]) was “Active” and the “growth inhibition (GI)” value (Lemna minor [2]) was “Active”.

In the case of `CCC1(C)Cc2c(sc3nc(SC)nc(O)c23)CS1` (configuration not stated), the pIC50 [5] was 4.23, the Activity (Lemna minor [1]) was “inactive” and the “growth inhibition (GI)” value (Lemna minor [2]) was “inactive”.

With `NC1=N/C(=N\NC(=O)Cc2cccc3ccccc23)c2ccccc21` the pIC50 [7] was 4.27, the Activity (Lemna minor [1]) was “inactive” and the “growth inhibition (GI)” value (Lemna minor [2]) was “inactive”.

`COc1ccc2nc(NC(=O)COc3ccc(-c4ccccc4)cc3)sc2c1` was tested, and the pIC50 [4] was 5.20, the Activity (Lemna minor [1]) was “inactive” and the “growth inhibition (GI)” value (Lemna minor [2]) was “inactive”.

Work on `N#Cc1cnn2c(O)c(Cc3ccccc3)c(Cl)nc12` yielded a pIC50 [4] of 7.46.

In the case of `NC1=N/C(=N\NC(=O)c2cc(Cl)ccn2)c2ccc3ccccc3c21`, the pIC50 [7] was 5.14, the Activity (Lemna minor [1]) was “Active” and the “growth inhibition (GI)” value (Lemna minor [2]) was “Active”.

With `Nc1ccn([C@@H]2O[C@H](CNC(=O)CCc3nc4ccccc4[nH]3)[C@@H](O)[C@H]2O)c(=O)n1` the pIC50 [8] was 5.77.

In the case of `CC(C)Nc1nc(Nc2ccccc2)nc(Cl)c1-c1c(F)cccc1Cl`, the pIC50 [5] was 4.47, the Activity (Lemna minor [1]) was “inactive” and the “growth inhibition (GI)” value (Lemna minor [2]) was “inactive”.

For `O=C(O)c1ccc(-c2ccc(/C=N/Nc3nc4ccccc4s3)o2)cc1`, the Activity (Lemna minor [1]) was “inactive”, the “growth inhibition (GI)” value (Lemna minor [2]) was “inactive” and the pIC50 [3] was 4.48.

Source: ChEMBL document CHEMBL3044603, “In search of new herbicidal inhibitors of the non-mevalonate pathway” (Pest Manag Sci, 2013)
